In data set [1] the test system is Zika virus. Description: Antiviral activity against ZIKV infected in HUVECs pre-infected with virus followed by compound addition and measured after 48 hrs by qRT-PCR analysis. It counts as functional, organism-based. Conditions: HUVEC. On the technique in general: In qPCR the cycle at which signal appears reflects the starting amount.
Data set [2] in a line: Metabolic stability in mouse liver microsomes assessed as half life preincubated with NADPH for 10 mins followed by compound addition and measured upto 30 mins by LC-MS/MS analysis. The settings on record: time < 40 min. In kind it is ADME, Microsome. Background: Liver microsomes are vesicles of endoplasmic reticulum, rich in cytochrome P450 enzymes.
Data set [3] deals with Zika virus. The data set can be described thus: Antiviral activity against ZIKV infected in HUVECs assessed as inhibition of viral replication at 10 uM pre-infected with virus for 1 hr prior to compound addition for 1 hr followed by compound washout and measured after 48 hrs post infection by qRT-PCR analysis. It counts as functional, organism-based. The settings on record: HUVEC.

For data set [4], the system named is Zika virus. The data set can be described thus: Antiviral activity against ZIKV infected in HUVECs assessed as inhibition of viral replication at 10 uM pretreated with cells for 1 hr followed by viral infection for 1 hr prior to compound washout and measured after 48 hrs post infection by qRT-PCR analysis. It counts as functional, organism-based. Conditions: HUVEC, time 2.0 hrs.

Data set [5] has as its system Zika virus. The data set can be described thus: Antiviral activity against ZIKV infected in HUVECs assessed as inhibition of viral replication at 10 uM incubated for 1 hr with subsequent addition of virus followed by compound washout and measured after 48 hrs post infection by qRT-PCR analysis. It counts as functional, organism-based. The settings on record: HUVEC.

Data set [6] relates to Zika virus. Description: Antiviral activity against ZIKV infected in HUVECs assessed as reduction in viral attachment to AXL. In kind it is functional, organism-based. Conditions: HUVEC.
The test system of data set [7] is Zika virus. Description: Antiviral activity against ZIKV infected in HUVECs assessed as reduction in NS5 protein level measured after 48 hrs by Western blot analysis. Conditions: HUVEC, dose 0.625-5 µM. It counts as functional, organism-based. In general terms: Immunoblotting shows a protein as a band on a membrane.
A further data set relates to Human coronavirus OC43. Description: Antiviral activity against Human coronavirus OC43 infected in BHK-21 cells assessed as inhibition of viral replication pre-infected with virus for 24 hrs followed by compound addition and measured after 48 hrs by luciferase assay. It counts as functional, organism-based. Conditions: Betacoronavirus 1, BHK-21.
Data set [8] in a line: Selectivity index, ratio of CC50 for HUVECs to EC50 for ZIKA virus infected in HUVECs. The settings on record: human, HUVEC cells; read-out: Ratio CC50/EC50. It counts as toxicity.
Data set [9] in a line: Metabolic stability in human liver microsomes assessed as half life preincubated with NADPH for 10 mins followed by compound addition and measured upto 30 mins by LC-MS/MS analysis. Conditions: time < 40 min. In kind it is ADME, Microsome.
Data set [10] is described as follows: Cytotoxicity against HUVECs assessed as reduction in cell viability incubated for 48 hrs by CCK-8 method. It counts as toxicity, cell-based. The settings on record: human, HUVEC cells.
The subject of the next data set is Influenza A virus. The data set can be described thus: Antiviral activity against influenza A virus infected in HEK293T cells assessed as inhibition of viral replication pre-infected with virus followed by compound addition and measured after 24 hrs by luciferase assay. In kind it is functional, organism-based. The settings on record: HEK-293T.
The next data set has as its system HEK-293T. The data set can be described thus: Cytotoxicity against HEK293T cells assessed as reduction in cell viability at >10 uM measured after 24 hrs by CCK-8 method. In kind it is toxicity, cell-based. The settings on record: human.
The test system of data set [11] is Zika virus. The data set can be described thus: Antiviral activity against ZIKV infected in HUVECs assessed as reduction in NS5 protein level at 1 uM measured after 48 hrs by Western blot analysis. In kind it is functional, organism-based. Conditions: HUVEC.
Data set [12] relates to Zika virus. The data set can be described thus: Antiviral activity against ZIKV infected in HUVECs at 5 uM pre-infected with virus followed by compound addition and measured after 48 hrs by qRT-PCR analysis relative to control. It counts as functional. Conditions: HUVEC.
The nature of data set [13]: Cytotoxicity against HUVECs assessed as reduction in cell viability at 5 uM incubated for 48 hrs by CCK-8 method relative to control. In kind it is toxicity, cell-based. Conditions: human, HUVEC cells, values are per cent of control.

Experimental findings from ChEMBL document CHEMBL5550103, “Design, synthesis, and antiviral activity of 1-aryl-4-arylmethylpiperazine derivatives as Zika virus inhibitors with broad antiviral spectrum” (Bioorg Med Chem, 2024) are described below.

The structures appear in SMILES notation. Activity calls are given as the source filed them. A value given as a limit tells only on which side of the number the result lay.

Take `CN(C)CCN(C)CCN(C)c1ccc(C(F)(F)F)c(CN2CCN(c3ccncc3)CC2)c1`: the EC50 worked out at 390 nM in the data set on Zika virus [1], 2280 nM in the data set on Human coronavirus OC43 and 2690 nM in the data set on Influenza A virus. Also, the half-life was 2.31 h in data set [2] and over 1.53 h in data set [9]. In addition, the outcome in the data set with Zika virus [3] and in the data set with Zika virus [6] was inactive. In addition, the outcome in the data set on Zika virus [4] and in the data set with Zika virus [5] was Active. Also, the Activity result in the data set on Zika virus [7] was “Dose-Dependent Effect”; in the data set on HEK-293T, “Toxic”. Also, the selectivity ratio in data set [8] is over 128. The cytotoxic concentration (CC50) at 48 h in data set [10] was over 50000 nM.
As for `C#C[C@@]1(O)[C@H](O)[C@@H](CO)O[C@H]1n1ccc2c(N)ncnc21`, the outcome with Zika virus [3] and in the data set on Zika virus [11] was Active. Besides, the result with Zika virus [4] was inactive.
As for `Clc1ccc(N2CCN(Cc3cc(N4CCC5(CCN(Cc6ccccc6)CC5)C4)ccn3)CC2)cc1`, in the data set with Zika virus [1], the concentration for a half-maximal effect (EC50) turned out to be 150 nM. Also, in data set [8], the selectivity ratio came out at 138. The CC50 at 48 h in [10] came to 20700 nM.
In the data set with Zika virus [1], `CN1CCCN(c2ccnc(CN3CCN(c4ccc(C(F)(F)F)cc4)CC3)c2)CC1` came in with an EC50 of 1320 nM. In addition, the selectivity ratio in data set [8] is 66. For the same molecule, the CC50 at 48 h in data set [10] is over 50000 nM.
`Cc1ccc(N2CCN(Cc3cc(N(C)CCN(C)C)ccn3)CC2)cc1` registered an inhibition at 5 µM in the data set on Zika virus [12] of under 10%. The viability, % of control at 48 h, 5 µM in data set [13] was 101%.
Take `CN(C)CCN(C)c1ccc(C(F)(F)F)c(CN2CCN(c3ccc(C(F)(F)F)cc3)CC2)c1`: in the data set with Zika virus [1], the EC50 was found to be 2930 nM. In addition, the selectivity ratio in [8] was 5. Also, the 50% cytotoxic concentration (CC50) at 48 h in [10] came out at 14600 nM.
As for `Cc1ccc(N2CCN(Cc3cc(N4CCCN5CCCC5C4)ccn3)CC2)cc1` (stereo not drawn), the inhibition at 5 µM in the data set on Zika virus [12] is under 10%. The viability, % of control at 48 h, 5 µM in data set [13] was 100%.
On the same counts, the results for `Cc1ccc(N2CCN(Cc3cc(N(C)CCN(C)C)ccc3C(F)(F)F)CC2)cc1` are under 10% and 103%.
In the data set on Zika virus [1], `CN1CC2CN(c3ccnc(CN4CCN(c5ccc(Cl)cc5)CC4)c3)CC2C1` (stereo not drawn) registered an EC50 of 1220 nM. The selectivity ratio in data set [8] was over 41. In addition, in data set [10], the CC50 at 48 h was over 50000 nM.
Molecule `Cc1ccc(N2CCN(Cc3cc(N4CCC5(CCN(C)CC5)C4)ccn3)CC2)cc1` returned an inhibition at 5 µM in the data set on Zika virus [12] of under 10%. The viability, % of control at 48 h, 5 µM in data set [13] amounted to 100%.
In the data set with Zika virus [1], `CN(C)CCN(C)c1ccnc(CN2CCN(c3ccc(Cl)cc3)CC2)c1` showed an EC50 of 950 nM. For the same molecule, the selectivity ratio in data set [8] is over 52. Further, the CC50 at 48 h in data set [10] was over 50000 nM.
On the same counts, the results for `CN1CCN(c2ccnc(CN3CCN(c4ccc(Cl)cc4)CC3)c2)CC1` are 1460 nM, over 34 and over 50000 nM.
`Clc1ccc(N2CCN(Cc3cc(N4CCC5(CCCN5Cc5ccccc5)C4)ccn3)CC2)cc1` (stereo not drawn) registered an inhibition at 5 µM in the data set on Zika virus [12] of 49%. In addition, the viability, % of control at 48 h, 5 µM in [13] was found to be 91%.
On the same counts, the results for `Cc1ccc(N2CCN(Cc3cc(N4CCCN(C)CC4)ccn3)CC2)cc1` are under 10% and 105%.
On the same counts, the results for `Cc1ccc(N2CCN(Cc3cc(N(C)CCN(C)CCN(C)C)ccc3C(F)(F)F)CC2)cc1` are under 10% and 98%.
Molecule `CN(C)CCN(C)c1ccc(C#N)c(CN2CCN(c3ccc(Cl)cc3)CC2)c1` showed an EC50 in the data set on Zika virus [1] of 2190 nM. Moreover, the half-life was 0.548 h in [2] and over 1.53 h in data set [9]. Also, the selectivity ratio in data set [8] was found to be 9. In addition, the CC50 at 48 h in [10] stood at 19800 nM.
In the case of `Cc1ccc(N2CCN(Cc3cc(N4CCCN(C)CC4)ccc3C(F)(F)F)CC2)cc1`, the inhibition at 5 µM in the data set with Zika virus [12] was under 10%. The viability, % of control at 48 h, 5 µM in data set [13] amounted to 105%.
For `CN(C)CCN(C)CCN(C)c1ccnc(CN2CCN(c3ccc(Cl)cc3)CC2)c1`, in the data set on Zika virus [1], the 50% effective concentration (EC50) was 870 nM. The selectivity ratio in data set [8] is over 58. The CC50 at 48 h in [10] was over 50000 nM.
On the same counts, the results for `CN(C)CCN(C)c1ccc(C(F)(F)F)c(CN2CCN(c3ccc(Cl)cc3)CC2)c1` are 1130 nM, 20 and 22400 nM.
On the same counts, the results for `CN1CCC2(CC1)CCN(c1ccnc(CN3CCN(c4ccc(Cl)cc4)CC3)c1)C2` are 590 nM, 54 and 31500 nM.
`CN(C)CCN(C)c1ccc(C(F)(F)F)c(CN2CCN(c3ccncc3)CC2)c1` showed an inhibition at 5 µM in the data set on Zika virus [12] of under 10%. The viability, % of control at 48 h, 5 µM in data set [13] turned out to be 107%.
`Clc1ccc(N2CCN(Cc3cc(N4CC5CN(Cc6ccccc6)CC5C4)ccn3)CC2)cc1` (stereo not drawn) gave an EC50 in the data set with Zika virus [1] of 2010 nM. Moreover, in data set [8], the selectivity ratio was over 25. Besides, the CC50 at 48 h in data set [10] was over 50000 nM.
In the data set on Zika virus [1], `CN1CCC2(CC1)CCN(c1ccc(C(F)(F)F)c(CN3CCN(c4ccc(C(F)(F)F)cc4)CC3)c1)C2` came in with an EC50 of 590 nM. Moreover, in [8], the selectivity ratio is 4. Also, the CC50 at 48 h in data set [10] is 2270 nM.
As for `CN(C)CCN(C)c1ccnc(CN2CCN(c3ccc(C(F)(F)F)cc3)CC2)c1`, the inhibition at 5 µM with Zika virus [12] was 33%. Also, the viability, % of control at 48 h, 5 µM in data set [13] stood at 103%.
Consider `CN1CC2(CCN(c3ccnc(CN4CCN(c5ccc(Cl)cc5)CC4)c3)C2)C1`, for which the EC50 in the data set on Zika virus [1] stood at 820 nM; in the data set on Human coronavirus OC43 it was 2200 nM; with Influenza A virus, 2600 nM. Besides, the half-life in data set [2] was 1.4 h; in [9], over 1.53 h. Also, the outcome in the data set with Zika virus [3] and with Zika virus [6] was inactive. Further, the result with Zika virus [4] and with Zika virus [5] was Active. For the same molecule, the Activity entry in the data set on Zika virus [7] was “Dose-Dependent Effect”; in the data set on HEK-293T it was “Toxic”. In data set [8], the selectivity ratio was over 61. In [10], the CC50 at 48 h was over 50000 nM.
On to `CN1CCC2(CC1)CCN(c1ccnc(CN3CCN(c4ccc(C(F)(F)F)cc4)CC3)c1)C2`, for which the EC50 in the data set with Zika virus [1] came out at 2180 nM. Also, in [8], the selectivity ratio came to 14. In [10], the CC50 at 48 h turned out to be 30400 nM.
On the same counts, the results for `CN1CCCN(c2ccc(C(F)(F)F)c(CN3CCN(c4ccc(C(F)(F)F)cc4)CC3)c2)CC1` are 930 nM, 11 and 9890 nM.
Molecule `CN(C)CCN(CCN(C)C)c1ccnc(CN2CCN(c3ccc(C(F)(F)F)cc3)CC2)c1` registered an inhibition at 5 µM in the data set on Zika virus [12] of under 10%. For the same molecule, the viability, % of control at 48 h, 5 µM in data set [13] amounted to 104%.
`NC(=O)c1ncn([C@@H]2O[C@H](CO)[C@@H](O)[C@H]2O)n1` [RIBAVIRIN]: in the data set on Zika virus [1], a half-maximal effect (EC50) was put at 2550 nM. Moreover, the selectivity ratio in data set [8] is over 59. Further, the CC50 at 48 h in data set [10] was over 150000 nM.

As a reminder, the EC50 is the concentration at which the effect is half-maximal. As usually defined, the half-life is the time needed for the level to fall by half in the phase considered. As usually defined, the CC50 is the concentration at which the toxic effect on the cells reaches its halfway point. In general, inhibition refers to the share of the control response that was lost under treatment.
